Laboratory results from PubChem BioAssay AID2060890 (Molecular Pharmacology Branch, DTP, NCI, 2025).

Tested on: LG0703-F948-PDC complex spheroid viability
Assay: Anticancer human tumor LG0703-F948-PDC patient-derived lung adenocarcinoma cell line growth inhibition [RAS]
Details: for IC50: curve of first compound; for viability, T/C: stronger effect = lower value
How it was run: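 Agents were tested in combination matrices in half-log decrements from a top concentration at or near clinical Cmax (10 microM if undetermined). Targets were multi-cell spheroids of tumour lines plus HUVEC and MSC stromal cells.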
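Note: spheroids exposed to agents for 7 days.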
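Throughout, for viability, T/C: 100% = DMSO vehicle wells.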

CC(=O)OC12COC1CC(O)C1(C)C(=O)C(O)C3=C(C)C(OC(=O)C(O)C(NC(=O)OC(C)(C)C)c4ccccc4)CC(O)(C(OC(=O)c4ccccc4)C21)C3(C)C (configuration not stated) + C=CC(=O)N1CCN(c2nc(OCC3CCCN3C)nc3c(F)c(-c4nc(N)cc(C)c4C(F)(F)F)c(Cl)cc23)C(C)C1
IC50 (second compound 0.00316 µM): < 31.6 nM | IC50 (second compound 0.01 µM): < 31.6 nM | IC50 (second compound 0.0316 µM): < 31.6 nM | IC50 (second compound 0.1 µM): < 31.6 nM | IC50 (second compound 0.316 µM): < 31.6 nM | IC50 (second compound 1 µM): < 31.6 nM | viability, T/C (second compound 0.00316 µM, first compound 0.0316 µM): 26.8% | viability, T/C (second compound 0.00316 µM, first compound 0.1 µM): 25.4% | viability, T/C (second compound 0.00316 µM, first compound 0.316 µM): 22.2% | viability, T/C (second compound 0.00316 µM, first compound 1 µM): 23.7% | viability, T/C (second compound 0.00316 µM, first compound 3.16 µM): 29.5% | viability, T/C (second compound 0.00316 µM, first compound 10 µM): 27.1% | viability, T/C (second compound 0.01 µM, first compound 0.0316 µM): 23.1% | viability, T/C (second compound 0.01 µM, first compound 0.1 µM): 24.4% | viability, T/C (second compound 0.01 µM, first compound 0.316 µM): 26.5% | viability, T/C (second compound 0.01 µM, first compound 1 µM): 23.5% | viability, T/C (second compound 0.01 µM, first compound 3.16 µM): 30.9% | viability, T/C (second compound 0.01 µM, first compound 10 µM): 27.5% | viability, T/C (second compound 0.0316 µM, first compound 0.0316 µM): 28.5% | viability, T/C (second compound 0.0316 µM, first compound 0.1 µM): 26.2% | viability, T/C (second compound 0.0316 µM, first compound 0.316 µM): 26.1% | viability, T/C (second compound 0.0316 µM, first compound 1 µM): 30.7% | viability, T/C (second compound 0.0316 µM, first compound 3.16 µM): 22.3% | viability, T/C (second compound 0.0316 µM, first compound 10 µM): 29% | viability, T/C (second compound 0.1 µM, first compound 0.0316 µM): 22.1% | viability, T/C (second compound 0.1 µM, first compound 0.1 µM): 26.4% | viability, T/C (second compound 0.1 µM, first compound 0.316 µM): 28.6% | viability, T/C (second compound 0.1 µM, first compound 1 µM): 28.8% | viability, T/C (second compound 0.1 µM, first compound 3.16 µM): 27.4% | viability, T/C (second compound 0.1 µM, first compound 10 µM): 24.7% | viability, T/C (second compound 0.316 µM, first compound 0.0316 µM): 24.9% | viability, T/C (second compound 0.316 µM, first compound 0.1 µM): 24% | viability, T/C (second compound 0.316 µM, first compound 0.316 µM): 26.4% | viability, T/C (second compound 0.316 µM, first compound 1 µM): 30.4% | viability, T/C (second compound 0.316 µM, first compound 3.16 µM): 28.1% | viability, T/C (second compound 0.316 µM, first compound 10 µM): 23.6% | viability, T/C (second compound 1 µM, first compound 0.0316 µM): 31.5% | viability, T/C (second compound 1 µM, first compound 0.1 µM): 27.3% | viability, T/C (second compound 1 µM, first compound 0.316 µM): 27.9% | viability, T/C (second compound 1 µM, first compound 1 µM): 29.2% | viability, T/C (second compound 1 µM, first compound 3.16 µM): 33.5% | viability, T/C (second compound 1 µM, first compound 10 µM): 32%
